Laboratory results as given in patent US11980609B2, “LPA receptor antagonists and uses thereof” (Gilead Sciences, Inc., priority 2021, dated 2024).

Molecular target: T1, human LPAR1 (Homo sapiens, UniProt Q92633)
T1 construct: host or cells: CHO-K1
Test: LPAR1 intracellular calcium mobilization assay (antagonist mode)
Assay type: cell-based
Conditions: CHO-K1 EDG2 cells expressing human LPAR1; 60 min pre-incubation with compound (0.5 nM to 10 μM), then LPA 18:2 challenge; FLIPR Tetra calcium signal
Experimental: In vitro LPAR1 activity was measured in an intracellular calcium mobilization assay.
CHO-K1 EDG2 cells (DiscoverX cat #93-0644C2) expressing human LPAR1 (NM_001401.3) were seeded in a total volume of 25 μL of Dulbecco's Modification of Eagle's Medium (DMEM) with 10% Fetal Bovine Serum, 1× PenStrepGlutamine, 300 μg/ml Hygromycin, and 800 μg/ml G418 into 384-well tissue culture plate (Grenier #781091) at 15,000 cells/well and incubated at 37° C. overnight. Prior to testing, 25 μL Calcium Loading Dye Component A (FLIPR Calcium 6 Assay Kit Molecular Device #R8190) and 2.5 mM Probenecid (Invitrogen #P36400, prepared fresh) in Hank's Balanced Salt Solution (Corning #21-023-CV), 20 mM HEPES (Corning #25-060-CI), 0.1% Bovine Serum Albumin (Sigma-Aldrich #A7906-500G) was add to the cells for 60 minutes at 37° C.
Agonist dose curves of LPA 18:2 (Avanti Polar Lipids cat #857138, 0.5 nM to 10 μM) were recorded to determine the LPA 18:2 EC80 for subsequent antagonist assays. For agonist dose curves, cells were removed from the incubator 2 hours after dye loading and transferred to the FLIPR Tetra instrument (Molecular Devices, San Jose, CA). Calcium mobilization was monitored for 5 min and 10 μL 6×LPA in HBSS/20 mM Hepes/0.1% bovine serum albumin (BSA) was added to the cells 5 seconds into the assay.
To determine the LPAR1 antagonist activity of test compounds, cells were pre-incubated with test compound at a dose range of 0.5 nM to 10 μM, followed by LPA at […] concentration (100 nM). After dye loading, cells were removed from the incubator and 0.3 μL of 200× antagonist was added. Cells were incubated for 60 minutes at 37° C. Antagonist activity was measured on a FLIPR Tetra. Calcium mobilization was monitored for 3.5 minutes and 10 μL 6×EC80 LPA in HBSS, 20 mM HEPES, and 0.1% BSA was added to the cells 5 seconds into the assay. Signal amplitude (Maximum minus minimum) values were plotted against log10 of antagonist concentration using Dose Response Tool (Gilead Sciences Inc.) to determine EC50.
To assess the antagonistic potential of exemplified compounds EC50 values were determined for Compounds 1 to 55 in the LPAR1 calcium mobilization assay. The compound numbers correspond to the compound numbers in Examples 1 to 35. N/A=not available.

T1 sequence (Q92633 whole entry): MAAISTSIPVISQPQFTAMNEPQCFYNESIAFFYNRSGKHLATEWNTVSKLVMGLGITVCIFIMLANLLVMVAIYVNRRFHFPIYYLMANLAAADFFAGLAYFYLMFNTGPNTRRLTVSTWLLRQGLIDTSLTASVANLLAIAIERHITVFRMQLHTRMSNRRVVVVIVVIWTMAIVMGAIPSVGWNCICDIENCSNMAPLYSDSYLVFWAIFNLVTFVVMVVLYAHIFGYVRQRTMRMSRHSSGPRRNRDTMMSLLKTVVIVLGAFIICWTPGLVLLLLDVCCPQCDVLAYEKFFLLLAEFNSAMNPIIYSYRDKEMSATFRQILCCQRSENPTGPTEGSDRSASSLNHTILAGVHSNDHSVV

Structure (SMILES): C[C@@H](OC(=O)Nc1c(-c2ncc(NC(=O)c3cnc(C(F)F)nc3)cn2)cnn1C)c1cc(F)cnc1F [Compound 24, (R)-1-(2,5-difluoropyridin-3-yl)ethyl (4-(5-(2-(difluoromethyl)pyrimidine-5-carboxamido)pyrimidin-2-yl)-1-methyl-1H-pyrazol-5-yl)carbamate]
- EC50: 26.8 nM

Structure (SMILES): C[C@@H](OC(=O)Nc1c(-c2ncc(NC(=O)C3(C(F)F)CC3)cn2)cnn1C)c1cc(F)cnc1Cl [Compound 25, (R)-1-(2-chloro-5-fluoropyridin-3-yl)ethyl (4-(5-(1-(difluoromethyl)cyclopropane-1-carboxamido)pyrimidin-2-yl)-1-methyl-1H-pyrazol-5-yl)carbamate]
- EC50: 60.5 nM

Structure (SMILES): C[C@@H](OC(=O)Nc1c(-c2ncc(NC(=O)c3ccc(Cl)nc3)cn2)cnn1C)c1cc(F)cnc1F [Compound 26, (R)-1-(2,5-difluoropyridin-3-yl)ethyl (4-(5-(6-chloronicotinamido)pyrimidin-2-yl)-1-methyl-1H-pyrazol-5-yl)carbamate]
- EC50: 20.6 nM

Structure (SMILES): C[C@@H](OC(=O)Nc1c(-c2ncc(NC(=O)c3ccc(C(F)(F)F)nc3)cn2)cnn1C)c1cc(F)cnc1F [Compound 27, (R)-1-(2,5-difluoropyridin-3-yl)ethyl (1-methyl-4-(5-(6-(trifluoromethyl)nicotinamido)pyrimidin-2-yl)-1H-pyrazol-5-yl)carbamate]
- EC50: 28 nM

Structure (SMILES): C[C@@H](OC(=O)Nc1c(-c2ncc(NC(=O)C3(C(F)F)CC3)cn2)cnn1C)c1cc(F)cnc1F [Compound 28, (R)-1-(2,5-difluoropyridin-3-yl)ethyl (4-(5-(1-(difluoromethyl)cyclopropane-1-carboxamido)pyrimidin-2-yl)-1-methyl-1H-pyrazol-5-yl)carbamate]
- EC50: 216 nM

Structure (SMILES): C[C@@H](OC(=O)Nc1c(-c2ncc(NC(=O)[C@@H]3C[C@H]3C(F)(F)F)cn2)cnn1C)c1cc(F)cnc1F [Compound 29, (R)-1-(2,5-difluoropyridin-3-yl)ethyl (1-methyl-4-(5-((1R,2R)-2-(trifluoromethyl)cyclopropane-1-carboxamido)pyrimidin-2-yl)-1H-pyrazol-5-yl)carbamate]
- EC50: < 4.6 nM

Structure (SMILES): C[C@@H](OC(=O)Nc1c(-c2ncc(NC(=O)C34CC(F)(C3)C4)cn2)cnn1C)c1cc(F)cnc1F [Compound 30, (R)-1-(2,5-difluoropyridin-3-yl)ethyl (4-(5-(3-fluorobicyclo[1.1.1]pentane-1-carboxamido)pyrimidin-2-yl)-1-methyl-1H-pyrazol-5-yl)carbamate]
- EC50: 36.2 nM

Structure (SMILES): C[C@@H](OC(=O)Nc1c(-c2ncc(NC(=O)C34CC(C(F)F)(C3)C4)cn2)cnn1C)c1cc(F)cnc1F [Compound 31, (R)-1-(2,5-difluoropyridin-3-yl)ethyl (4-(5-(3-(difluoromethyl)bicyclo[1.1.1]pentane-1-carboxamido)pyrimidin-2-yl)-1-methyl-1H-pyrazol-5-yl)carbamate]
- EC50: 23.7 nM

Structure (SMILES): C[C@@H](OC(=O)Nc1c(-c2ncc(NC(=O)[C@@H]3C[C@H]3C(F)(F)F)cn2)cnn1C)c1cccnc1Cl [Compound 32, (R)-1-(2-chloropyridin-3-yl)ethyl (1-methyl-4-(5-((1R,2R)-2-(trifluoromethyl)cyclopropane-1-carboxamido)pyrimidin-2-yl)-1H-pyrazol-5-yl)carbamate]
- EC50: < 4.6 nM

Structure (SMILES): C[C@@H](OC(=O)Nc1c(-c2ncc(NC(=O)[C@@H]3C[C@H]3c3cccnc3)cn2)cnn1C)c1cc(F)cnc1F [Compound 33, (R)-1-(2,5-difluoropyridin-3-yl)ethyl (1-methyl-4-(5-((1R,2R)-2-(pyridin-3-yl)cyclopropane-1-carboxamido)pyrimidin-2-yl)-1H-pyrazol-5-yl)carbamate]
- EC50: 20.3 nM

Structure (SMILES): C[C@@H](OC(=O)Nc1c(-c2ncc(NC(=O)[C@@H]3C[C@H]3C(F)F)cn2)cnn1C)c1cc(F)cnc1F [Compound 34, (R)-1-(2,5-difluoropyridin-3-yl)ethyl (4-(5-((1R,2R)-2-(difluoromethyl)cyclopropane-1-carboxamido)pyrimidin-2-yl)-1-methyl-1H-pyrazol-5-yl)carbamate]
- EC50: 11.6 nM

Structure (SMILES): C[C@@H](OC(=O)Nc1c(-c2ncc(NC(=O)C3(C)CC(F)(F)C3)cn2)cnn1C)c1cc(F)cnc1F [Compound 35, (R)-1-(2,5-difluoropyridin-3-yl)ethyl (4-(5-(3,3-difluoro-1-methylcyclobutane-1-carboxamido)pyrimidin-2-yl)-1-methyl-1H-pyrazol-5-yl)carbamate]
- EC50: 14 nM

Structure (SMILES): C[C@@H](OC(=O)Nc1c(-c2ncc(NC(=O)C3CC(F)(F)C3)cn2)cnn1C)c1cc(F)cnc1F [Compound 36, (R)-1-(2,5-difluoropyridin-3-yl)ethyl (4-(5-(3,3-difluorocyclobutane-1-carboxamido)pyrimidin-2-yl)-1-methyl-1H-pyrazol-5-yl)carbamate]
- EC50: 18.6 nM

Structure (SMILES): C[C@@H](OC(=O)Nc1c(-c2ncc(NC(=O)C3(C(F)F)CC(F)(F)C3)cn2)cnn1C)c1cc(F)cnc1F [Compound 37, (R)-1-(2,5-difluoropyridin-3-yl)ethyl (4-(5-(1-(difluoromethyl)-3,3-difluorocyclobutane-1-carboxamido)pyrimidin-2-yl)-1-methyl-1H-pyrazol-5-yl)carbamate]
- EC50: 7.9 nM

Structure (SMILES): C[C@@H](OC(=O)Nc1c(-c2ncc(NC(=O)[C@]3(C)C[C@@H](C#N)C3)cn2)cnn1C)c1cc(F)cnc1F [Compound 38, (R)-1-(2,5-difluoropyridin-3-yl)ethyl (4-(5-((1r,3R)-3-cyano-1-methylcyclobutane-1-carboxamido)pyrimidin-2-yl)-1-methyl-1H-pyrazol-5-yl)carbamate]
- EC50: 52.7 nM

Structure (SMILES): C[C@@H](OC(=O)Nc1c(-c2ncc(NC(=O)[C@@H]3C[C@H]3C#N)cn2)cnn1C)c1cc(F)cnc1F [Compound 39, (R)-1-(2,5-difluoropyridin-3-yl)ethyl (4-(5-((1R,2R)-2-cyanocyclopropane-1-carboxamido)pyrimidin-2-yl)-1-methyl-1H-pyrazol-5-yl)carbamate]
- EC50: 66.7 nM

Structure (SMILES): C[C@@H](OC(=O)Nc1c(-c2ncc(NC(=O)[C@@H]3C[C@H]3C(F)(F)F)cn2)cnn1C)c1cccnc1F [Compound 40, (R)-1-(2-fluoropyridin-3-yl)ethyl (1-methyl-4-(5-((1R,2R)-2-(trifluoromethyl)cyclopropane-1-carboxamido)pyrimidin-2-yl)-1H-pyrazol-5-yl)carbamate]
- EC50: < 4.6 nM

Structure (SMILES): C[C@@H](OC(=O)Nc1c(-c2ncc(NC(=O)C3(C)CC(F)(F)C3)cn2)cnn1C)c1cccnc1F [Compound 41, (R)-1-(2-fluoropyridin-3-yl)ethyl (4-(5-(3,3-difluoro-1-methylcyclobutane-1-carboxamido)pyrimidin-2-yl)-1-methyl-1H-pyrazol-5-yl)carbamate]
- EC50: 20.7 nM

Structure (SMILES): C[C@@H](OC(=O)Nc1c(-c2ncc(NC(=O)C3(C#N)CC3)cn2)cnn1C)c1cccnc1F [Compound 42, (R)-1-(2-fluoropyridin-3-yl)ethyl (4-(5-(1-cyanocyclopropane-1-carboxamido)pyrimidin-2-yl)-1-methyl-1H-pyrazol-5-yl)carbamate]
- EC50: 54.9 nM

Structure (SMILES): COC1(C#N)CC(C(=O)Nc2cnc(-c3cnn(C)c3NC(=O)O[C@H](C)c3cc(F)cnc3F)nc2)C1 (stereo partly drawn) [Compound 43, (R)-1-(2,5-difluoropyridin-3-yl)ethyl (4-(5-(3-cyano-3-methoxycyclobutane-1-carboxamido)pyrimidin-2-yl)-1-methyl-1H-pyrazol-5-yl)carbamate]
- EC50: 22.6 nM

Structure (SMILES): C[C@@H](OC(=O)Nc1c(-c2ncc(O)cn2)cnn1C)c1cccnc1Cl [Compound 44, (R)-1-(2-chloropyridin-3-yl)ethyl (4-(5-hydroxypyrimidin-2-yl)-1-methyl-1H-pyrazol-5-yl)carbamate]
- EC50: 120 nM

Structure (SMILES): C[C@@H](OC(=O)Nc1c(-c2ncc(O)cn2)cnn1C)c1cc(F)cnc1F [Compound 45, (R)-1-(2,5-difluoropyridin-3-yl)ethyl (4-(5-hydroxypyrimidin-2-yl)-1-methyl-1H-pyrazol-5-yl)carbamate]
- EC50: 301 nM

Structure (SMILES): C[C@@H](OC(=O)Nc1c(-c2ncc(C(=O)NC34CC(C#N)(C3)C4)cn2)cnn1C)c1cc(F)cnc1F [Compound 46, (R)-1-(2,5-difluoropyridin-3-yl)ethyl (4-(5-((3-cyanobicyclo[1.1.1]pentan-1-yl)carbamoyl)pyrimidin-2-yl)-1-methyl-1H-pyrazol-5-yl)carbamate]
- EC50: 158 nM
